In PubChem BioAssay (NCI):
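Exposure lasted 48 hours, with cells grown in 96-well plates and compounds tested at five concentrations. TGI: concentration producing complete growth inhibition.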

Columns and labels:
Test in all cases: DTP human tumour cell line panel, 48 h
MDA-N = tested on: MDA-N
SK-MEL-2 melanoma = tested on: SK-MEL-2 melanoma
BT-549 breast = tested on: BT-549 breast
HCC-2998 colon = tested on: HCC-2998 colon
HOP-62 NSCLC = tested on: HOP-62 NSCLC
UO-31 renal = tested on: UO-31 renal
A549 NSCLC = tested on: A549 NSCLC
UACC-62 melanoma = tested on: UACC-62 melanoma
NCI-H23 lung = tested on: NCI-H23 lung
SW-620 colon = tested on: SW-620 colon
T-47D breast = tested on: T-47D breast
SF-295 CNS = tested on: SF-295 CNS
SF-268 CNS = tested on: SF-268 CNS
PC-3 prostate = tested on: PC-3 prostate
SN12C renal = tested on: SN12C renal

| Structure (SMILES) | TGI (MDA-N) [µM] | TGI (SK-MEL-2 melanoma) [µM] | TGI (BT-549 breast) [µM] | TGI (HCC-2998 colon) [µM] | TGI (HOP-62 NSCLC) [µM] | TGI (UO-31 renal) [µM] | TGI (A549 NSCLC) [µM] | TGI (UACC-62 melanoma) [µM] | TGI (NCI-H23 lung) [µM] | TGI (SW-620 colon) [µM] | TGI (T-47D breast) [µM] | TGI (SF-295 CNS) [µM] | TGI (SF-268 CNS) [µM] | TGI (PC-3 prostate) [µM] | TGI (SN12C renal) [µM] |
| --- | --- | --- | --- | --- | --- | --- | --- | --- | --- | --- | --- | --- | --- | --- | --- |
| CC(=O)O[C@@H]1C[C@]2(C(=O)c3ccccc3)C(=O)C(=O)S[C@]12c1ccccc1 | > 100 | > 100 | > 100 | 75.1 | > 100 | > 100 | > 100 | > 100 | > 100 | > 100 | 94.3 | > 100 | > 100 | > 100 | > 100 |
| C[C@H]1C[C@@H]2[C@H]([C@@H](O)C[C@@]3(C)[C@H]2CC[C@]3(O)C(=O)CO)[C@@]2(C)C=CC(=O)C=C12 |  | > 100 |  | > 100 | > 100 | > 100 | > 100 | > 100 | > 100 | > 100 |  |  |  |  | > 100 |
| CC(C)(C)[Si](OC1CCOC1=O)(c1ccccc1)c1ccccc1 (centres undefined) |  | 32.5 |  | 47 |  | > 100 | 62.7 | 29.3 | 77.1 | > 100 |  | 60.2 | > 100 |  | 33.5 |
| COc1cc2c(c(OC)c1OC)-c1ccc(OC)c(=O)cc1C(NC(=O)COc1ccccc1)CC2 (centres undefined) | < 0.01 | > 15.8 | 5.12 | 1.04 | > 100 | > 100 | > 100 | > 100 |  | > 95.2 | > 100 | 0.0874 | 61.6 | > 100 | > 100 |
| Cc1ccc(O)c(Cc2nc3ccccc3nc2-c2cccc(Cl)c2)c1 | > 100 | > 100 | > 100 | > 100 | > 100 | > 100 | > 100 | > 100 | > 100 | > 100 | > 100 | > 100 | > 100 | > 100 | > 100 |
| COc1cc(C(=O)NC2CCc3cc(OC)c(OC)c(OC)c3-c3ccc(OC)c(=O)cc32)cc(OC)c1OC (centres undefined) | 0.0961 | > 24.1 |  | 1.16 | > 100 | > 98 | > 100 | 45.9 | 12.8 | > 100 | > 100 | 13 | 42.4 | > 100 | > 100 |
| c1ccc2c(CSCc3cccc4ccccc34)cccc2c1 | > 100 | > 100 | > 100 | > 100 | > 100 | > 100 | > 100 | > 100 | > 100 | > 100 | > 100 | > 100 | > 100 | > 100 | > 100 |
| C[n+]1cccc(NC(=O)c2ccc(NC(=O)C34CCC(C(=O)Nc5ccc(C(=O)Nc6ccc[n+](C)c6)cc5)(CC3)CC4)cc2)c1 |  |  |  |  | > 100 |  | > 100 | > 100 | > 100 | > 100 |  | > 100 | > 100 |  | 75.1 |
| CCCCc1ccc(N=C(N)N)cc1 | 67 | > 100 | 90.7 | 30.4 |  | > 100 | > 100 | > 100 | > 100 | > 100 | > 100 | 87.3 | > 100 | > 100 | > 100 |
| CC(=O)Oc1ccccc1 |  | > 100 |  |  | > 100 | > 100 | > 100 | > 100 | > 100 | > 100 |  | > 100 | > 100 |  | > 100 |
